Patent US7465814B2, “Sulfonate compound and fluorescent probe using the same” (priority 2003, dated 2008)

Tests used:
Assay type in all cases: biochemical
[1] = Capability as superoxide-detecting fluorescent probe (reactivity with superoxide)
Experimental: Then, by mainly using the compound 1d as a testing compound, the capability thereof as a superoxide-selective fluorescent probe was evaluated, and moreover, a test in a cell system also was conducted. These tests will be described below.
Thus, it is thought that each compound synthesized from a combination of: a phenolic colorant; and a 2,4-dinitrobenzenesulfonyl group, a 4-trifluoromethyl-2-nitrobenzenesulfonyl group or a 4-nitrobenzenesulfonyl group can be used as a superoxide-detecting fluorescent probe similarly. An example of the usage thereof will be shown in Scheme 8 below. Furthermore, it can be expected that a compound for a fluorescent probe having characteristics that are suitable for its application purpose can be designed and developed freely, by designing the compound of the present invention freely within the limitation defined by the general formula (I) and using the fluorescence mechanism developed by the inventors of the present invention, without being limited to the above-described combinations. Examples of the application purpose of the compound of the present invention are varied, including an application to a faintly coloring technique using superoxide.

[2] = Fluorescent response to glucose (Table 1); conditions: relative fluorescence intensity, blank = 10; probe 21.3 μM, glucose 50 μM, 37° C., 10 minutes
Experimental: Moreover, in other conditions than those of the above-described tests, reactivity of all of the compounds 1a to 1d with H2O2, other various kinds of nucleophilic agents, reducing agents and the like also was tested, respectively. More specifically, fluorescent responses of 1a to 1d with respect to a XO-HPX system, a XO-HPX-SOD system, H2O2, ascorbic acid, 1,4-hydroquinone, propylamine, diethylamine, glucose, esterase, a cytochrome P450 reductase+NADPH system, and a diaphorase+NADH system were measured, respectively. Operational processes thereof will be described below. Firstly, 1a to 1d and the above-described reagents were dissolved in HEPES of 10 mM having a pH of 7.4 so as to prepare solutions, respectively. Next, a 96 wellmicroplate was provided, where any of the solutions of 1a to 1d (25 μM, 170 μL) was poured into each of the wells, and furthermore, 30 μL of a blank solution or 30 μL of the solution of the reagent to be reacted therewith was added thereto. Final concentrations of the solutions in the wells were adjusted so that concentrations of the solutions of 1a to 1d respectively could be 21.3 μM, that of XO could be 13.1 mU/mL, those of HPX, H2O2, ascorbic acid, 1,4-hydroquinone, propylamine, diethylamine, glucose, NADPH and NADH respectively could be 50 μM, that of cytochrome P450 reductase could be 68 mU/mL, that of diaphorase could be 65 mU/mL, and that of esterase could be 0.5 U/mL, respectively. Then, after they reacted in the wells at 37° C. for 10 minutes, fluorescent responses were measured respectively. Fluorescence intensity measurement was conducted by using an ETC-272 Peltier thermostatted single cell holder (trade name) manufactured by JASCO Corporation or a SpectraMax GeminiEM fluorescence plate reader (trade name) manufactured by Molecular Devices Corporation provided with a FP-750 spectrofluorometer (trade name) manufactured by JASCO Corporation, and by setting excitation wavelengths and emission wavelengths so that those of 1a, 1b and 1c respectively could be 485 nm and 515 nm, and those of 1d respectively could be 511 nm and 540 nm.

[3] = Tracking fluorescence with enzymatically produced superoxide (FIG. 1a-c)
Description: This figure is a graph showing results that are obtained by tracking fluorescence by allowing the compound 1d to react with H2O2 or superoxide produced enzymatically, a horizontal axis thereof represents a reaction time (second), and a vertical axis thereof represents a fluorescence intensity (au). In the figure, (a) represents a result obtained by a reaction in the presence of HPX and XO, (b) represents a result obtained by a reaction in the presence of HPX, XO and SOD, (c) represents a result obtained by a reaction under an anaerobic condition in the presence of HPX, XO and SOD, and (d) represents a result obtained by a reaction with only H2O2. The test results shown in FIG. 1 will be described below in further detail.
More specifically, the enzyme reaction of the compound 1d (16 μM), xanthine oxidase (XO, 0.01 U/mL) and hypoxanthine (HPX, 40 μM) at 37° C. in a HEPES buffer solution (pH 7.4, 10 mM, 2.5 mL) was tracked at an excitation wavelength of 511 nm and an emission wavelength of 531 nm, then a fluorescent response caused by the formation of the compound 2d (above Scheme 4) was observed, and a progressive curve shown in FIG. 1(a) was obtained.
A specific description thereof will be provided below. NBT has a property of being reduced by superoxide O^2−•, and thus is used for a probe for spectrophotometric measurement and the like. However, NBT has a serious problem of being reduced not only by superoxide but also by reductase that exists in a biosystem.

Structure (SMILES): O=C1OC2(c3ccccc31)c1cc(F)c(OS(=O)(=O)c3ccc([N+](=O)[O-])cc3[N+](=O)[O-])c(F)c1Oc1c2cc(F)c(OS(=O)(=O)c2ccc([N+](=O)[O-])cc2[N+](=O)[O-])c1F [Compound 1d]
- fluorescence response by reacting with superoxide [1]: particularly superior in sensitivity
- fluorescent response, glucose [2]: 10
- fluorescence response with HPX and XO, FIG. 1(a) ([3]; 1d 16 μM, XO 0.01 U/mL, HPX 40 μM, 37° C., HEPES pH 7.4, ex 511 nm, em 531 nm): increase a fluorescence response significantly in a short period of time
- production of 2d from 1d caused by XO reductant, FIG. 1(c) ([3]; HPX, XO and SOD under the anaerobic condition): proceeded at a very low speed
- fluorescence response with HPX, XO and SOD, FIG. 1(b) ([3]; as FIG. 1(a) plus SOD 40 U/mL): inhibited significantly
